Reference: ChEMBL document CHEMBL1649445, “Genital tract, cord blood, and amniotic fluid exposures of seven antiretroviral drugs during and after pregnancy in human immunodeficiency virus type 1-infected women” (Antimicrob Agents Chemother, 2009)
Blank lines part the entries; values can stand above or below the compound they belong to.

Key:
Format in all cases: ADME, organism-based
[1] = Ratio of drug level in HIV-infected pregnant woman cord blood plasma to maternal blood plasma at 200 mg, po BID by HPLC/UV analysis; details: female, human
[2] = Drug level in HIV-infected pregnant woman amniotic fluid at 200 mg, po BID by HPLC/UV analysis; details: human, in vivo
[3] = Ratio of drug level in HIV-infected pregnant woman amniotic fluid to maternal blood plasma at 200 mg, po BID by HPLC/UV analysis; details: female, human
[4] = Drug level in HIV-infected pregnant woman cord blood plasma at 200 mg, po BID by HPLC/UV analysis; details: human, in vivo
[5] = Drug level in HIV-infected pregnant woman maternal blood plasma at 200 mg, po BID by HPLC/UV analysis; details: human, in vivo
[6] = Drug level in HIV-infected pregnant woman maternal blood plasma at 400 mg, po BID by HPLC/UV analysis; details: human, in vivo
[7] = Drug level in HIV-infected pregnant woman amniotic fluid at 400 mg, po BID by HPLC/UV analysis; details: human, in vivo
[8] = Drug level in HIV-infected pregnant woman cord blood plasma at 400 mg, po BID by HPLC/UV analysis; details: human, in vivo
[9] = Ratio of drug level in HIV-infected pregnant woman cord blood plasma to maternal blood plasma at 100 mg, po BID by HPLC/UV analysis; details: female, human
[10] = Drug level in HIV-infected pregnant woman amniotic fluid at 100 mg, po BID by HPLC/UV analysis; details: human, in vivo
[11] = Drug level in HIV-infected pregnant woman maternal blood plasma at 100 mg, po BID by HPLC/UV analysis; details: human, in vivo
[12] = Ratio of drug level in HIV-infected pregnant woman amniotic fluid to maternal blood plasma at 100 mg, po BID by HPLC/UV analysis; details: female, human
[13] = Drug level in HIV-infected pregnant woman cord blood plasma at 100 mg, po BID by HPLC/UV analysis; details: human, in vivo
[14] = Drug level in HIV-infected pregnant woman amniotic fluid at 300 mg, po QD by LC/MS/MS analysis; details: human, in vivo
[15] = Drug level in HIV-infected pregnant woman cord blood plasma at 300 mg, po QD by LC/MS/MS analysis; details: human, in vivo
[16] = Drug level in HIV-infected pregnant woman maternal blood plasma at 300 mg, po QD by LC/MS/MS analysis; details: human, in vivo
[17] = Ratio of drug level in HIV-infected pregnant woman amniotic fluid to maternal blood plasma at 300 mg, po QD by LC/MS/MS analysis; details: female, human
[18] = Ratio of drug level in HIV-infected pregnant woman cord blood plasma to maternal blood plasma at 300 mg, po QD by LC/MS/MS analysis; details: female, human
[19] = Drug level in HIV-infected pregnant woman cord blood plasma at 1250 mg, po BID by HPLC/UV analysis; details: human, in vivo
[20] = Drug level in HIV-infected pregnant woman maternal blood plasma at 1250 mg, po BID by HPLC/UV analysis; details: human, in vivo
[21] = Ratio of drug level in HIV-infected pregnant woman cord blood plasma to maternal blood plasma at 1250 mg, po BID by HPLC/UV analysis; details: female, human
[22] = Ratio of drug level in HIV-infected pregnant woman amniotic fluid to maternal blood plasma at 1250 mg, po BID by HPLC/UV analysis; details: female, human
[23] = Drug level in HIV-infected pregnant woman amniotic fluid at 1250 mg, po BID by HPLC/UV analysis; details: human, in vivo
[24] = Drug level in HIV-infected pregnant woman cord blood plasma at 150 mg, po BID by LC/MS/MS analysis; details: human, in vivo
[25] = Drug level in HIV-infected pregnant woman maternal blood plasma at 150 mg, po BID by LC/MS/MS analysis; details: human, in vivo
[26] = Drug level in HIV-infected pregnant woman amniotic fluid at 150 mg, po BID by LC/MS/MS analysis; details: human, in vivo
[27] = Drug level in HIV-infected pregnant woman amniotic fluid at 300 mg, po BID by LC/MS/MS analysis; details: human, in vivo
[28] = Drug level in HIV-infected pregnant woman maternal blood plasma at 300 mg, po BID by LC/MS/MS analysis; details: human, in vivo
[29] = Drug level in HIV-infected pregnant woman cord blood plasma at 300 mg, po BID by LC/MS/MS analysis; details: human, in vivo

Structure (SMILES): Cc1ccnc2c1NC(=O)c1cccnc1N2C1CC1 [NEVIRAPINE]
Kp [1]: 0.59 | Drug uptake [2]: 1385 ng/mL | Kp [3]: 0.53 | Drug uptake [4]: 1538 ng/mL | Drug uptake [5]: 2595 ng/mL

Drug uptake [6]: 3451 ng/mL | Drug uptake [7]: 60 ng/mL | Drug uptake [8]: 80 ng/mL
Structure (SMILES): Cc1cccc(C)c1OCC(=O)N[C@@H](Cc1ccccc1)[C@@H](O)C[C@H](Cc1ccccc1)NC(=O)[C@H](C(C)C)N1CCCNC1=O [LOPINAVIR]

Kp [9]: 0.55 | Drug uptake [10]: 12 ng/mL | Drug uptake [11]: 256 ng/mL | Kp [12]: 0.02 | Drug uptake [13]: 20 ng/mL
Structure (SMILES): CC(C)c1nc(CN(C)C(=O)N[C@H](C(=O)N[C@@H](Cc2ccccc2)C[C@H](O)[C@H](Cc2ccccc2)NC(=O)OCc2cncs2)C(C)C)cs1 [RITONAVIR]

Drug uptake [14]: 791 ng/mL | Drug uptake [15]: 30 ng/mL | Drug uptake [16]: 5 ng/mL | Kp [17]: 158 | Kp [18]: 6
Structure (SMILES): C[C@H](Cn1cnc2c(N)ncnc21)OCP(=O)(O)O [TENOFOVIR ANHYDROUS]

Drug uptake [19]: 25 ng/mL | Drug uptake [20]: 65 ng/mL | Kp [21]: 0.49 | Kp [22]: 1 | Drug uptake [23]: 12 ng/mL
Structure (SMILES): Cc1c(O)cccc1C(=O)N[C@@H](CSc1ccccc1)[C@H](O)CN1C[C@H]2CCCC[C@H]2C[C@H]1C(=O)NC(C)(C)C

Drug uptake [24]: 216 ng/mL | Drug uptake [25]: 271 ng/mL | Drug uptake [26]: 931 ng/mL
Structure (SMILES): Nc1ccn([C@@H]2CS[C@H](CO)O2)c(=O)n1 [LAMIVUDINE]

Drug uptake [27]: 2249 ng/mL | Drug uptake [28]: 557 ng/mL | Drug uptake [29]: 605 ng/mL
Structure (SMILES): Cc1cn([C@H]2C[C@H](N=[N+]=[N-])[C@@H](CO)O2)c(=O)[nH]c1=O [ZIDOVUDINE]
